“And” between values parts separate entries of the source, which are not always exact repeats. Equal entries are not always repeated. Inconclusive results are not listed. The source made the active and inactive calls.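 Rule for the calls: active = Compounds that reduce signal, with fitted half-maximal dose at or under twice the top valid tested dose; inconclusive = Poor fit, or flat curve losing 30 to 70% of signal; inactive = Potency past limit, flat within 30%, or opposite direction.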
test system: HEK293T viability, ATP luminescence (CellTiter-Glo), 48 h; assay: HEK293T cell cytotoxicity, dose response, cytotoxicity control, ATP luminescence, cherry-pick samples (AID 687005); details: not given

| SMILES | AC50 |
| --- | --- |
| COc1ccc(C(=O)NC(=S)Nc2cccc(Cl)c2N2CCOCC2)cc1[N+](=O)[O-] | 25.1 µM and 6.55 µM |
| COC(=O)C1=C(C)N(Cc2ccccc2)C(=S)NC1c1cccc(OC)c1 (stereo not drawn) | 13.1 µM and 4.84 µM |

test system: not listed separately; assay: as above; details: HEK293T viability, ATP luminescence (CellTiter-Glo), 48 h; at 23.5 µM (top of the series)

| SMILES | activity change, negative = cytotoxicity |
| --- | --- |
| C[C@@H]1CN([C@@H](C)CO)C(=O)c2cc(NC(=O)Nc3ccc4c(c3)OCO4)ccc2O[C@H]1CN(C)Cc1ccc(Oc2ccccc2)cc1 | -38.4% (inactive) |
| C[C@@H]1CN([C@@H](C)CO)C(=O)c2cc(NS(=O)(=O)c3ccccc3)ccc2O[C@H]1CN(C)C(=O)NC1CCCCC1 | -17.7% (inactive) |
| CO[C@@H]1CN(C)C(=O)c2ccc(NC(C)=O)cc2OC[C@@H](C)N(C(=O)Cc2cccnc2)C[C@H]1C | -26.2% (inactive) |

same assay, conditions: HEK293T viability, ATP luminescence (CellTiter-Glo), 48 h; at 26 µM (top of the series)

| SMILES | activity change, negative = cytotoxicity |
| --- | --- |
| O=C(NCCN1CCCCC1)[C@@H]1N[C@@H]2c3ccc(-c4ccncc4)c(=O)n3C[C@@H]2[C@H]1CO | -26.2% (inactive) |
| O=C(NC1CCCCC1)N[C@H]1C=C[C@@H](CC(=O)N2CCOCC2)O[C@@H]1CO | 17.4% (inactive) |
| O=C(C[C@@H]1C[C@@H]2c3cc(NC(=O)C4CCC4)ccc3O[C@@H]2[C@H](CO)O1)NCc1cccc(F)c1 | 3.17% (inactive) |
| COc1ccccc1NC(=O)N[C@H]1CC[C@@H](CCn2cc(-c3ccccc3OC)nn2)O[C@@H]1CO | -9.57% (inactive) |
| CC=Cc1ccc2n(c1=O)C[C@H]1[C@H](CO)[C@@H](C(=O)N3CCc4ccccc4C3)N(C(=O)C3CC3)[C@@H]21 (mixture of isomers) | -9.72% (inactive) |
| O=c1nc(-c2ccccc2)c2ccccc2[nH]1 | 1.46% (inactive) |
| O=C(C[C@H]1CC[C@@H](NC(=O)c2ccc3c(c2)OCO3)[C@@H](CO)O1)NCc1ccc(F)cc1 | -2.35% (inactive) |
| CC(C)NC(=O)Nc1cccc2c1O[C@@H](CN(C)C(=O)Nc1ccccc1)[C@@H](C)CN([C@@H](C)CO)C2=O | -13.9% (inactive) |
| C[C@@H]1CN([C@@H](C)CO)C(=O)c2cc(-c3cncnc3)cnc2O[C@H]1CN(C)C(=O)CN1CCOCC1 | -25.3% (inactive) |
| CCCC(=O)Nc1ccc2c(c1)C(=O)N(C)C[C@H](OC)[C@@H](C)CN(C(=O)c1cccnc1)[C@@H](C)CO2 | 4.75% (inactive) |
| C[C@@H]1CCCCO[C@H](CN(C)C(=O)c2ccccc2)[C@@H](C)CN([C@@H](C)CO)C(=O)c2cc(NC(=O)c3ccccc3)ccc2O1 | 5.72% (inactive) |
| O=C(c1ccco1)N1N=C(c2cccs2)CC1c1cc([N+](=O)[O-])ccc1O (stereo not drawn) | 37.4% (inactive) |
| CCCCNC(=S)N/N=C/c1ccc(C#N)cc1 | -29.9% (inactive) |
| C[C@H]1CN([C@@H](C)CO)C(=O)c2cc(NC(=O)CCN3CCOCC3)ccc2O[C@@H]1CN(C)Cc1ccc(C(=O)O)cc1 | 36.2% (inactive) |
| COCC(=O)Nc1ccc2c(c1)C(=O)N(C)C[C@H](OC)[C@@H](C)CN(C(=O)c1ccccc1)[C@@H](C)CO2 | 13.6% (inactive) |
| C[C@@H]1CN([C@@H](C)CO)C(=O)c2cccc(NC(=O)c3ccncc3)c2O[C@H]1CN(C)C(=O)Nc1ccccc1 | 6.14% (inactive) |
| COC(=O)C1=C(C)N(Cc2ccccc2)C(=S)N[C@H]1c1cccc(C(F)(F)F)c1 | -25.6% (inactive) |
| O=C(NC(=S)Nc1ccccc1N1CCOCC1)c1cccc([N+](=O)[O-])c1 | -5.81% (inactive) |
| CO[C@H](CN(C)Cc1ccc2c(c1)OCO2)[C@@H](C)CN(C(=O)c1ccccc1)[C@@H](C)CO | -12.9% (inactive) |
| CO[C@H]1CN(C)C(=O)c2ccc(NC(=O)C3CC3)cc2OC[C@@H](C)N(Cc2ccc(F)cc2)C[C@@H]1C | 37.9% (inactive) |
| CCC(=O)N1[C@@H]2Cn3c(ccc(C4=CCCCC4)c3=O)[C@H]1[C@@H](C(=O)N[C@H](C)c1ccccc1)[C@@H]2CO | -16.5% (inactive) |
| Cc1ccc(C2CC(c3cccs3)=NN2C(=O)c2ccc(Br)o2)cc1 (stereo not drawn) | 39% (inactive) |
| CCCC#Cc1ccc2c(c1)O[C@@H](CN(C)C)[C@@H](C)CN([C@@H](C)CO)S2(=O)=O | 13.6% (inactive) |
| Cc1cccc(NC(=S)NN(Cc2ccccc2)c2ccccc2)c1C | 25.3% (inactive) |
| O=C(Cc1ccccc1)N[C@H]1C=C[C@@H](CC(=O)N2CCOCC2)O[C@@H]1CO | -14.2% (inactive) |
| COCC(=O)N(C)C[C@@H]1Oc2ncc(C#CCC3CCCC3)cc2C(=O)N([C@@H](C)CO)C[C@H]1C | 1.81% (inactive) |
| O=C(CN1CCOCC1)N1CC[C@@H]2[C@@H](CO)Nc3ccc(-c4ccccc4F)cc3[C@@H]21 | 29% (inactive) |
| C[C@H]1CN([C@@H](C)CO)S(=O)(=O)c2ccc(C#Cc3cccc(F)c3)cc2O[C@@H]1CN(C)C | -49.7% (inactive) |

| SMILES | activity change, negative = cytotoxicity |
| --- | --- |
| C[C@H]1CCCCO[C@@H](CN(C)C(=O)c2ccccc2)[C@@H](C)CN([C@@H](C)CO)C(=O)c2cc(NC(=O)c3ccncc3)ccc2O1 | -3.03% (inactive) |
| C[C@H](CO)N1C[C@H](C)[C@H](CN(C)S(=O)(=O)c2cn(C)cn2)Oc2ncc(/C=C/c3ccccc3)cc2C1=O | 5.3% (inactive) |
| C[C@H]1CN([C@@H](C)CO)C(=O)Cc2cc(NS(=O)(=O)c3ccc(F)cc3)ccc2O[C@@H]1CN(C)S(=O)(=O)c1ccc(F)cc1 | -11.2% (inactive) |
| CC(C)NC(=O)Nc1ccc2c(c1)C(=O)N([C@@H](C)CO)C[C@@H](C)[C@H](CN(C)Cc1ccncc1)OCCCC[C@@H](C)O2 | 75.6% (inactive) |
| CC(C)NC(=O)Nc1ccc2c(c1)CC(=O)N([C@@H](C)CO)C[C@@H](C)[C@H](CN(C)C(=O)Nc1ccc3c(c1)OCO3)O2 | 50.2% (inactive) |
| C[C@@H]1CN([C@@H](C)CO)C(=O)c2cc(NC(=O)C3CCCCC3)ccc2O[C@@H](C)CCCCO[C@@H]1CN(C)C(=O)NC1CCCCC1 | 8.91% (inactive) |
| CC(C)NC(=O)N[C@H]1CC[C@@H](CCNC(=O)C2CC2)O[C@@H]1CO | -21.3% (inactive) |
| CCC(C(=O)Nc1c(C)cc(C)cc1C)N1CCCCCC1 (stereo not drawn) | 18.8% (inactive) |
| O=C(CSc1ncnc2c1cnn2-c1ccccc1)NC1CCS(=O)(=O)C1 (stereo not drawn) | 5% (inactive) |
| CCCNC(=O)C[C@H]1CC[C@H]2[C@@H](COC[C@@H](O)CN2S(=O)(=O)c2ccc(Oc3ccccc3)cc2)O1 | -8.05% (inactive) |
| C[C@H](CO)N1C[C@H](C)[C@H](CN(C)CC2CCCCC2)Oc2c(NS(C)(=O)=O)cccc2C1=O | 32.2% (inactive) |
| CC(=O)c1cccc(NC(=S)NC2CCCCCCC2)c1 | -21.5% (inactive) |
| CO[C@H]1CN(C)C(=O)c2cc(NS(=O)(=O)CC(F)(F)F)ccc2OC[C@@H](C)N(Cc2cccnc2)C[C@@H]1C | -36.3% (inactive) |
| CN1C(=O)c2cc(NS(=O)(=O)c3cccc(F)c3)ccc2OC[C@H]2O[C@H](CC(=O)O)CC[C@H]21 | 29.9% (inactive) |
| C[C@@H]1CN([C@H](C)CO)C(=O)CCCn2cc(nn2)CO[C@@H]1CN(C)C(=O)CCCN(C)C | -5.89% (inactive) |
| CCCC(=O)Nc1ccc2c(c1)OC[C@@H](C)N(Cc1cncnc1)C[C@@H](C)[C@@H](OC)CN(C)C2=O | 49.4% (inactive) |
| CO[C@@H]1CN(C)C(=O)c2cc(NS(=O)(=O)c3cccc(C)c3)ccc2OC[C@@H](C)NC[C@H]1C | 4.92% (inactive) |
| C[C@@H]1CN([C@H](C)CO)C(=O)c2cc(N(C)C)ccc2O[C@@H]1CN(C)C(=O)Nc1ccc(C(F)(F)F)cc1 | -77.2% (inactive) |
| CCCNC(C)C(=O)Nc1ccccc1C (stereo not drawn) | -25.6% (inactive) |
| C[C@@H]1CN([C@H](C)CO)C(=O)c2cc(NS(=O)(=O)c3ccc(Cl)cc3)ccc2O[C@H]1CN(C)S(=O)(=O)c1ccc(F)cc1 | 38.8% (inactive) |
| C[C@H](O)C#Cc1cnc2c(c1)C(=O)N([C@@H](C)CO)C[C@@H](C)[C@@H](CN(C)C(=O)Cc1ccncc1)O2 | 0.451% (inactive) |
| CO[C@H]1CN(C)C(=O)c2cc(NC(=O)c3ccc4c(c3)OCO4)ccc2OC[C@@H](C)N(CC2CC2)C[C@H]1C | -5.62% (inactive) |
| CNC[C@@H]1Oc2c(NS(=O)(=O)c3cccs3)cccc2C(=O)N([C@@H](C)CO)C[C@H]1C | 28.1% (inactive) |
| Cc1ccc(S(=O)(=O)N[C@@H]2CC[C@H](CCNC(=O)C3CCCC3)O[C@@H]2CO)cc1 | -17.8% (inactive) |
| C[C@H](CO)N1C[C@H](C)[C@@H](CN(C)Cc2ccc(-c3ccccc3)cc2)Oc2ccc(NC(=O)Nc3ccc(C(F)(F)F)cc3)cc2C1=O | -3.25% (inactive) |
| COCC(=O)N(C)C[C@@H]1Oc2ncc(C#CCC3CCCC3)cc2C(=O)N([C@H](C)CO)C[C@H]1C | 57.2% (inactive) |
| COc1cccc(-c2cn(CC[C@@H]3CC[C@H](NC(C)=O)[C@@H](CO)O3)nn2)c1 | 8.26% (inactive) |

same assay, conditions: HEK293T viability, ATP luminescence (CellTiter-Glo), 48 h; at 35 µM (top of the series)

| SMILES | activity change, negative = cytotoxicity |
| --- | --- |
| Cc1ccc(NC(=O)C2(C)CCN2C(=O)CCC2CCCC2)cc1C (stereo not drawn) | -23.2% (inactive) |
| Cc1cc(C)c(N2CCCC2C(=O)Nc2cccc(C(F)(F)F)c2)c(C)c1 (stereo not drawn) | -7.11% (inactive) |

same assay, conditions: HEK293T viability, ATP luminescence (CellTiter-Glo), 48 h; at 42 µM (top of the series)

| SMILES | activity change, negative = cytotoxicity |
| --- | --- |
| Cc1ccc(NC(=O)C2(C)CCCN2CC(C)C)cc1C (stereo not drawn) | -2.43% (inactive) |

— PubChem BioAssay AID687005 (Broad Institute, 2013)
